Key:
KB tumors = experiment: Inhibition of tumor growth, s.c. KB tumors; format: in vivo, nu/nu mice; parameters: key to In vivo activity (e): CR=complete response, where tumor volume, as defined herein, during the observation period was zero for all test animals in the group; settings: for CR (%) / Cures (%) / PR (%): TIW
Protocol: METHOD. Inhibition of Tumor Growth in Mice. Four to seven week-old mice (Balb/c or nu/nu strains) were purchased from Harlan Sprague Dawley, Inc. (Indianapolis, Ind.). Normal rodent chow contains a high concentration of folic acid (6 mg/kg chow); accordingly, test animals were maintained on a folate-free diet (Harlan diet #TD00434) for about 1 week before tumor implantation to achieve serum folate concentrations close to the range of normal human serum, and during the Method. For tumor cell inoculation, 1×10^6 M109 cells (a syngeneic lung carcinoma) in Balb/c strain, or 1×10^6 KB cells in nu/nu strain, in 100 μL were injected in the subcutis of the dorsal medial area (right axilla). Tumors were measured in two perpendicular directions every 2-3 days using a caliper, and their volumes were calculated as 0.5×L×W^2, where L=measurement of longest axis in mm and W=measurement of axis perpendicular to L in mm.
Dosing solutions were prepared fresh each day in PBS and administered through the lateral tail vein of the mice.
Tumor implantation. KB tumor cells were grown in folate-deficient RPMI 1640 with 5% FBS at 37° C. in a 5% CO2 humidified atmosphere. KB (1×10^6 cells per animal) tumor cells were inoculated subcutaneously […] post start of the folate deficient diet. Mice were dosed after the tumors reached between 100-150 mm3.
Preparation of dosing drug solutions. Dosing solutions were prepared when dosing began by weighing appropriate amounts of each compound, reconstituting in PBS, pH 7.4, sterile filtering the drug solution through a 0.22 µm PVDF syringe filter, and freezing aliquots for each day of dosing at −20° C.
Evaluation. Tumor size was monitored and body weight measured 3 times/week. Attention was given to gross animal morphology and behavior. Euthanasia was performed if the mice lost >20% of weight or when the tumors reached a size of 1500 mm3. Euthanasia was also performed at the researcher's discretion if mice lost a lot of weight in a short duration or when mice were approaching moribund conditions. Blood samples were collected by cardiac puncture from all viable animals from selected cohorts. Heart, lungs, liver, spleen, kidney, intestines, bone, brain and muscle were obtained immediately after euthanasia. The tissues were removed and stored in 10% neutral-buffered formalin.
For example, a 50% decrease in tumor volume from the initial measurement represents a partial response.
For example, a decrease in tumor volume where the measurements in two perpendicular directions are each about 2 mm or less represents a complete response.

ST502 tumors = experiment: TNBC PDX tumor model; format: in vivo, Balb/c nu/nu mice; settings: combined with Eribulin mesylate 1 mg/kg
Protocol: (§1) Female Balb/c nu/nu mice were fed ad libitum with folate-deficient chow (Harlan diet #TD01013) for the duration of the experiment. Primary human Endometrial model ST040, TNBC models 5T502 and ST738 and Ovarian model ST024 fragments (2-4 mm in diameter) were inoculated subcutaneously at the right flank of each mouse. Mice were randomized into 6 experimental groups of 5 or 3 mice each and test articles were injected through the lateral tail vein under sterile conditions in a volume of 200 μL of phosphate-buffered saline (PBS).
(§2) Growth of each s.c. tumor was followed by measuring the tumor two times per week until a volume of 1200 mm^3 was reached. Tumors were measured in two perpendicular directions using Vernier calipers, and their volumes were calculated as 0.5×L×W^2, where L=measurement of longest axis in mm and W=measurement of axis perpendicular to L in mm.

ST738 tumors = experiment: TNBC PDX tumor model; format: in vivo, Balb/c nu/nu mice; settings: combined with Eribulin mesylate 1 mg/kg
Protocol: as §1, §2

[1] = test system: KB-CR2000 (cisplatin resistant) tumors; experiment: Cisplatin-resistant KB-CR2000 tumor model; format: in vivo, mice
Description: METHOD. Human cisplatin-resistant cell line. […] In addition, regrowth of the tumor was only observed in 1/5 test animals.

ST024 tumors = experiment: Ovarian PDX tumor model; format: in vivo, Balb/c nu/nu mice; settings: combined with Paclitaxel 15 mg/kg
Protocol: as §1, §2

[2] = EC1456 2 μmol/kg two times a week for two weeks
[3] = EC1456 4 μmol/kg once a week for two weeks
[4] = 2 μmol/kg i.v. TIW 2 weeks, nearly 70 day observation period

## CCCC(=O)OCN(C(=O)[C@@H](NC(=O)[C@H]1CCCCN1C)C(C)CC)[C@H](C[C@@H](OC(C)=O)c1nc(C(=O)N[C@@H](Cc2ccc(O)cc2)C[C@H](C)C(=O)NNC(=O)OCCSSC[C@@H](NC(=O)[C@H](CCC(=O)NC[C@H](O)[C@@H](O)[C@H](O)[C@H](O)CO)NC(=O)[C@@H](CCC(=O)O)NC(=O)[C@H](CCC(=O)NC[C@H](O)[C@@H](O)[C@H](O)[C@H](O)CO)NC(=O)[C@@H](CCC(=O)O)NC(=O)[C@H](CCC(=O)NC[C@H](O)[C@@H](O)[C@H](O)[C@H](O)CO)NC(=O)CC[C@@H](NC(=O)c2ccc(NCc3cnc4nc(N)[nH]c(=O)c4n3)cc2)C(=O)O)C(=O)O)cs1)C(C)C (stereo in doubt) [EC1456]
KB tumors; 0.5 μmol/kg, 3 weeks
  CR (%): 0%
  Cures (%): 0%
  PR (%): 60%
KB tumors; 0.67 μmol/kg, 2 weeks
  CR (%): 20%
  Cures (%): 0%
  PR (%): 60%
KB tumors; 1.0 μmol/kg, 2 weeks
  CR (%): 60%
  Cures (%): 60%
  PR (%): 40%
KB tumors; 2.0 μmol/kg, 2 weeks
  CR (%): 100%
  Cures (%): 100%
  PR (%): 0%
KB tumors; EC1456 1 μmol/kg BIW×2 + carboplatin 30 mg/kg BIW×2 + paclitaxel 10 mg/kg BIW×2
  efficacy of co-administration of EC1456 and carboplatin and paclitaxel: enhanced technical effect over EC1456 alone and the combination of carboplatin with paclitaxel
KB tumors; EC1456 1 μmol/kg BIW×2 + cisplatin 3 mg/kg BIW×3
  efficacy of co-administration of EC1456 and cisplatin: enhanced technical effect over both monotherapies
KB tumors; EC1456 1 μmol/kg BIW×2 vs cisplatin 3 mg/kg BIW×3
  efficacy of EC1456 alone compared to cisplatin: improved efficacy over cisplatin
KB tumors; EC1456 1 μmol/kg TIW×2 + avastin 5 mg/kg BIW×2
  efficacy of co-administration of EC1456 and bevacizumab: enhanced technical effect over both monotherapies
KB tumors; EC1456 1 μmol/kg TIW×2 vs avastin 5 mg/kg BIW×2
  efficacy of EC1456 alone compared to bevacizumab: improved efficacy over bevacizumab
KB tumors; EC1456 added to the carboplatin/paclitaxel combination
  cures, % of the mice: 100%
KB tumors; EC1456 alone 1 μmol/kg twice a week for 2 weeks
  PR's: 20%
KB tumors; P-1606 KB tumors, EC1456 1 μmol/kg BIW×2 + topotecan 5 mg/kg BIW×2
  efficacy of co-administration of EC1456 and topotecan: enhanced technical effect over both monotherapies
KB tumors; P-1606 KB tumors, EC1456 1 μmol/kg BIW×2 vs topotecan 5 mg/kg BIW×2
  efficacy of EC1456 alone compared to topotecan: improved efficacy over topotecan
KB tumors; P-1609 KB tumors, EC1456 1 μmol/kg TIW×5 + docetaxel 7 mg/kg BIW×3
  efficacy of co-administration of EC1456 and docetaxel: enhanced technical effect over both monotherapies
KB tumors; P-1609 KB tumors, EC1456 1 μmol/kg TIW×5 + topotecan 5 mg/kg TIW×5
  efficacy of co-administration of EC1456 and topotecan: enhanced technical effect over both monotherapies
KB tumors; P-1609 KB tumors, EC1456 1 μmol/kg TIW×5 vs docetaxel 7 mg/kg BIW×3
  efficacy of EC1456 alone compared to docetaxel: improved efficacy over docetaxel
KB tumors; P-1609 KB tumors, EC1456 1 μmol/kg TIW×5 vs topotecan 5 mg/kg TIW×5
  efficacy of EC1456 alone compared to topotecan: improved efficacy over topotecan
KB tumors; P-1635 KB tumors, EC1456 1 μmol/kg TIW + carboplatin 50 mg/kg TIW
  efficacy of co-administration of EC1456 and carboplatin: enhanced technical effect over both monotherapies
KB tumors; P-1635 KB tumors, EC1456 1 μmol/kg TIW×2 vs carboplatin 50 mg/kg TIW
  efficacy of EC1456 alone compared to carboplatin: improved efficacy over carboplatin
KB tumors; co-dosed with excess comparator compound EC0923 (50 or 100 μmol/kg)
  specific activity mediated by the folate receptor: competable
KB tumors; human KB tumors in mice, conjugated vs unconjugated drugs
  anti-tumor activity / response: dose responsive anti-tumor activity
KB tumors; intravenously 1 μmol/kg TIW, 2 wk
  complete response, test animals: 4/4
KB tumors; subcutaneous KB tumor in nu/nu mice
  In vivo activity (e): CR
ST502 tumors; [2]
  animals exhibiting CRs: 5 animals
  animals exhibiting cures: 2 animals
ST502 tumors; [3]
  animals exhibiting CR's: 3 animals
  animals exhibiting PR's: 4 animals
ST738 tumors; [2]
  animals exhibiting cures: 7 animals
ST738 tumors; [3]
  animals exhibiting PR's: 2 animals
  animals exhibiting cures: 4 animals
[1]; [4]
  regrowth of the tumor, test animals: 1/5
  test animals cured (no regrowth): 4/5
[1]; 2 μmol/kg i.v. three times per week, 2 weeks
  CRs: 5/5
ST024 tumors; [2]
  animals exhibiting cures: 100%
ST024 tumors; [3]
  animals exhibiting cures: 100%

Source: US20170035894A1, “DRUG DELIVERY CONJUGATES FOR TREATING RESISTANT CANCER AND FOR USE IN COMBINATION THERAPY” (ENDOCYTE, INC., priority 2014, published 2017)
